Assay results published in patent US11840686B2, “Modulation of prekallikrein (PKK) expression” (Ionis Pharmaceuticals, Inc., priority 2013, dated 2023).
Strand notation (5' to 3'): a small letter for the sugar, then the base; units joined by * are phosphorothioate-linked, units joined directly phosphodiester-linked; [ ] holds rarer units or linkages, { } end groups; capitals alone tell only the bases. e = 2'-O-(2-methoxyethyl) (MOE); [5mC] = 5-methylcytosine; d = 2'-deoxy (DNA)

System: human PKK mRNA
Experiment: Antisense inhibition of human PKK mRNA in HepaRG cells, 5,000 nM (Example 2)
Type: cell-based
Protocol: Additional antisense oligonucleotides were designed targeting a PKK nucleic acid and were tested for their effects on PKK mRNA in vitro.
The chimeric antisense oligonucleotides in the tables below were designed as 5-10-5 MOE gapmers, 4-9-4 MOE gapmers, 4-10-4 MOE gapmers, 4-10-3 MOE gapmers, 3-10-4 MOE gapmers, or 3-10-3 MOE gapmers. The 5-10-5 MOE gapmers are 20 nucleosides in length, wherein the central gap segment comprises of ten 2′-deoxynucleosides and is flanked by wing segments on the 5′ direction and the 3′ direction comprising five nucleosides each. The 4-9-4 MOE gapmers are 17 nucleosides in length, wherein the central gap segment comprises of nine 2′-deoxynucleosides and is flanked by wing segments on the 5′ direction and the 3′ direction comprising four nucleosides each. The 4-10-4 MOE gapmers are 18 nucleosides in length, wherein the central gap segment comprises of ten 2′-deoxynucleosides and is flanked by wing segments on the 5′ direction and the 3′ direction comprising four nucleosides each. The 4-10-3 MOE gapmers are 17 nucleosides in length, wherein the central gap segment comprises of ten 2′-deoxynucleosides and is flanked by wing segments on the 5′ direction and the 3′ direction comprising four and three nucleosides respectively. The 3-10-4 MOE gapmers are 17 nucleosides in length, wherein the central gap segment comprises often 2′-deoxynucleosides and is flanked by wing segments on the 5′ direction and the 3′ direction comprising three and four nucleosides respectively. The 3-10-3 MOE gapmers are 16 nucleosides in length, wherein the central gap segment comprises of ten 2′-deoxynucleosides and is flanked by wing segments on the 5′ direction and the 3′ direction comprising three nucleosides each. Each nucleoside in the 5′ wing segment and each nucleoside in the 3′ wing segment has a 2′-O-methoxyethyl modification. The internucleoside linkages throughout each gapmer are phosphorothioate linkages. All cytosine residues throughout each gapmer are 5-methylcytosines. “Start site” indicates the 5′-most nucleoside to which the gapmer is targeted in the human gene sequence. “Stop site” indicates the 3′-most nucleoside to which the gapmer is targeted in the human gene sequence.
Cultured HepaRG™ cells at a density of 20,000 cells per well were transfected using electroporation with 5,000 nM antisense oligonucleotide. After a treatment period of approximately 24 hours, RNA was isolated from the cells and PKK mRNA levels were measured by quantitative real-time PCR. Human primer probe set RTS3454 was used to measure mRNA levels. PKK mRNA levels were adjusted according to total RNA content, as measured by RIBOGREEN®. The antisense oligonucleotides were tested in a series of experiments that had similar culture conditions. Results are presented as percent inhibition of PKK, relative to untreated control cells.

[1] = HepaRG cells, electroporation, 5,000 nM antisense oligonucleotide, approx. 24 hours, primer probe set RTS3454, relative to untreated control cells, Table 11
[2] = HepaRG cells, electroporation with 5,000 nM antisense oligonucleotide, approximately 24 hours, PKK mRNA by RT-PCR (RTS3454), relative to untreated control cells, Table 6 experiment
[3] = HepaRG cells, electroporation with 5,000 nM antisense oligonucleotide, approximately 24 hours, PKK mRNA by RT-PCR (RTS3454), relative to untreated control cells, Table 5 experiment
[4] = HepaRG cells, electroporation, 5,000 nM antisense oligonucleotide, approx. 24 hours, primer probe set RTS3454, relative to untreated control cells, Table 12
[5] = Table 7, HepaRG cells, electroporation with 5,000 nM antisense oligonucleotide, approx. 24 hours, PKK mRNA by RT-PCR (RTS3454), relative to untreated control cells
[6] = HepaRG cells, 5,000 nM antisense oligonucleotide, 5-10-5 gapmers, Table 17
[7] = HepaRG cells, 5,000 nM antisense oligonucleotide, 5-10-5 gapmers, Table 16
[8] = human PKK mRNA in HepaRG cells, 5-10-5 gapmers, Table 14
[9] = Table 8, HepaRG cells, electroporation with 5,000 nM antisense oligonucleotide, approx. 24 hours, PKK mRNA by RT-PCR (RTS3454), relative to untreated control cells
[10] = Table 9 experiment, HepaRG cells, 20,000 cells per well, electroporation with 5,000 nM antisense oligonucleotide, approx. 24 hours, PKK mRNA by RT-PCR (RTS3454), relative to untreated control cells
[11] = Table 10 experiment, HepaRG cells, 20,000 cells per well, electroporation with 5,000 nM antisense oligonucleotide, approx. 24 hours, PKK mRNA by RT-PCR (RTS3454), relative to untreated control cells
[12] = Table 13, human PKK mRNA in HepaRG cells, 5-10-5 gapmers

547490 (antisense eG*eT*eA*eG*eA*d[5mC]*dA*d[5mC]*d[5mC]*dA*dG*dG*dT*dT*dG*e[5mC]*eT*e[5mC]*e[5mC]*e[5mC]) [compound 547490]
% inhibition [1]: 55%

547318 (antisense e[5mC]*e[5mC]*eA*eG*eA*dA*dA*d[5mC]*dT*dG*d[5mC]*dA*d[5mC]*d[5mC]*dT*eG*eT*eT*e[5mC]*eG) [compound 547318]
% inhibition [2]: 74%

547284 (antisense eA*eA*eA*eT*eG*dA*dA*dA*dT*dA*dA*dG*dT*dT*dG*e[5mC]*eT*eT*eG*e[5mC]) [compound 547284]
% inhibition [3]: 26%

546501 (eT*eT*eT*e[5mC]*e[5mC]*dA*dT*dG*d[5mC]*dA*dT*dA*d[5mC]*dT*d[5mC]*eG*e[5mC]*e[5mC]*eT*eT; antisense) [compound 546501]
% inhibition [4]: 53%

546222 (antisense eG*eG*eG*eT*eG*dA*dT*dA*dG*dG*dT*dG*d[5mC]*dA*dG*eA*eT*eG*eG*eT) [compound 546222]
% inhibition [5]: 12%

547738 (eT*eT*eG*eG*eT*dG*dG*dT*dG*dG*dG*dA*dT*dT*dG*eG*eT*eG*e[5mC]*eT; antisense) [compound 547738]
% inhibition [6]: 41%

546913 (eG*eT*eA*e[5mC]*e[5mC]*dT*dA*dT*dA*dT*d[5mC]*dA*d[5mC]*dT*dG*eT*eA*eA*e[5mC]*eT; antisense) [compound 546913]
% inhibition [7]: 38%

547512 (antisense eG*e[5mC]*eA*eG*eA*dT*dG*dA*dG*dG*dA*d[5mC]*d[5mC]*d[5mC]*d[5mC]*e[5mC]*e[5mC]*eA*eG*eG) [compound 547512]
% inhibition [1]: 74%

547735 (eG*eG*eT*eA*eG*dG*dA*dT*dT*dG*dG*dT*dG*dG*dT*eG*eG*eG*eA*eT; antisense) [compound 547735]
% inhibition [6]: 39%

547683 (antisense eA*e[5mC]*eT*eA*eT*dA*dT*d[5mC]*dA*d[5mC]*dT*dG*dT*d[5mC]*d[5mC]*eT*eA*eT*eA*eA) [compound 547683]
% inhibition [7]: 33%

547396 (eT*e[5mC]*eA*eG*eG*dT*dA*dA*dA*dG*dT*dT*d[5mC]*dT*dT*eT*eT*eG*e[5mC]*eA; antisense) [compound 547396]
% inhibition [5]: 49%

548709 (DNA eG*eT*eA*d[5mC]*dT*dA*dG*dT*dT*dT*d[5mC]*d[5mC]*dT*eA*eT*eA; antisense) [compound 548709]
% inhibition (HepaRG cells, 5,000 nM antisense oligonucleotide, human PKK mRNA, Table 18): 0%

547076 (eT*e[5mC]*eT*e[5mC]*eA*dA*dG*d[5mC]*dA*dG*d[5mC]*d[5mC]*dT*dA*dT*eT*eG*eT*eG*eT; antisense) [compound 547076]
% inhibition [6]: 14%

546200 (antisense eA*eA*eA*eA*e[5mC]*dT*dG*dG*d[5mC]*dA*dG*d[5mC]*dG*dA*dA*eT*eG*eT*eT*eA) [compound 546200]
% inhibition [2]: 91%

547630 (antisense eA*e[5mC]*eT*eG*eT*d[5mC]*d[5mC]*dT*dA*dT*dA*dT*d[5mC]*dA*d[5mC]*eT*e[5mC]*eT*eA*e[5mC]) [compound 547630]
% inhibition (human PKK mRNA, HepaRG cells, 5-10-5 motif oligonucleotides targeting SEQ ID NO: 1 and 10): 76%

546425 (eG*eG*eT*e[5mC]*eA*dA*dT*d[5mC]*dT*dG*dA*d[5mC]*dT*dA*dG*eT*eG*eA*eA*eT; antisense) [compound 546425]
% inhibition [4]: 69%

546878 (e[5mC]*e[5mC]*eT*eA*eT*dA*dA*d[5mC]*dA*dG*dT*dA*dT*d[5mC]*dA*e[5mC]*eT*eG*eT*e[5mC]; antisense) [compound 546878]
% inhibition [8]: 81%

547515 (antisense eA*eG*eA*eA*eG*dA*dT*dG*d[5mC]*d[5mC]*dA*d[5mC]*dT*d[5mC]*dT*e[5mC]*e[5mC]*eA*eT*eG) [compound 547515]
% inhibition [1]: 58%

547414 (eT*eG*eG*eG*eA*dG*dT*dA*dA*dA*dG*dA*dA*dT*dA*eA*eG*eT*eG*eA; antisense) [compound 547414]
% inhibition [9]: 76%

547473 (antisense eT*eT*eT*eG*eG*dA*dT*dT*dT*d[5mC]*dA*d[5mC]*d[5mC]*dT*dT*eT*e[5mC]*eT*e[5mC]*e[5mC]) [compound 547473]
% inhibition [10]: 5%
% inhibition [11]: 26%

546884 (eA*e[5mC]*eT*eA*eG*dT*dT*dT*d[5mC]*d[5mC]*dT*dA*dT*dA*dA*e[5mC]*eA*eG*eT*eA; antisense) [compound 546884]
% inhibition [8]: 6%

546299 (antisense eA*eT*eG*e[5mC]*e[5mC]*dA*d[5mC]*dT*dA*dT*dA*dG*dA*dT*dG*e[5mC]*eG*e[5mC]*e[5mC]*eA) [compound 546299]
% inhibition [9]: 84%

547605 (antisense eA*e[5mC]*eA*eA*eT*dA*dT*d[5mC]*dA*d[5mC]*dT*dG*dT*dA*d[5mC]*e[5mC]*eT*eA*eT*eA) [compound 547605]
% inhibition [8]: 43%

546931 (eG*e[5mC]*e[5mC]*e[5mC]*e[5mC]*d[5mC]*dG*dG*dA*dG*d[5mC]*dA*d[5mC]*d[5mC]*dT*eT*e[5mC]*eA*e[5mC]*eT; antisense) [compound 546931]
% inhibition [7]: 58%

546137 (eA*eT*eT*eG*e[5mC]*dT*dT*d[5mC]*dT*dT*dG*dG*dA*dG*dG*eT*eG*eA*eG*eT; antisense) [compound 546137]
% inhibition [3]: 76%

546841 (e[5mC]*eA*e[5mC]*eT*eG*dT*d[5mC]*d[5mC]*dT*dA*dT*dA*dA*d[5mC]*dT*e[5mC]*eT*eA*eA*e[5mC]; antisense) [compound 546841]
% inhibition [12]: 38%

546234 (e[5mC]*e[5mC]*eA*eG*eA*dT*dA*dT*dG*dG*dT*dG*dT*dT*dT*eT*e[5mC]*eT*eT*eG; antisense) [compound 546234]
% inhibition [5]: 69%

547425 (eT*eA*eA*e[5mC]*e[5mC]*dA*dG*dA*dG*d[5mC]*dT*d[5mC]*d[5mC]*d[5mC]*dT*eT*eG*eT*eG*eT; antisense) [compound 547425]
% inhibition [9]: 85%

547533 (antisense eT*eT*eT*eT*eG*d[5mC]*dT*dT*dG*dG*d[5mC]*dT*dT*d[5mC]*dA*eA*eT*eA*eT*eT) [compound 547533]
% inhibition [4]: 23%

546311 (antisense e[5mC]*eA*eT*eG*eA*dT*dT*d[5mC]*d[5mC]*d[5mC]*dT*dT*d[5mC]*dT*dG*eA*eG*eA*e[5mC]*eT) [compound 546311]
% inhibition [10]: 79%
% inhibition [11]: 76%

547583 (e[5mC]*eA*e[5mC]*eT*eG*dT*d[5mC]*d[5mC]*dT*dA*dT*dA*dT*d[5mC]*dA*e[5mC]*eT*eG*eT*e[5mC]; antisense) [compound 547583]
% inhibition [12]: 80%

547363 (eG*eG*e[5mC]*eA*eA*d[5mC]*dA*dT*d[5mC]*d[5mC]*dA*d[5mC]*dA*dT*d[5mC]*eT*eG*eA*eG*eA; antisense) [compound 547363]
% inhibition [2]: 84%

547334 (antisense eA*eA*eT*eG*eT*d[5mC]*dT*d[5mC]*dG*dA*dT*dG*dG*d[5mC]*dA*eA*eG*e[5mC]*eA*e[5mC]) [compound 547334]
% inhibition [2]: 74%

548777 (antisense eG*eT*eA*eA*d[5mC]*dA*dG*dT*dA*dT*d[5mC]*dA*d[5mC]*eT*eG*eT*eA) [compound 548777]
% inhibition (human PKK mRNA, HepaRG cells, 5,000 nM antisense oligonucleotide, Table 18): 41%

547400 (eT*eG*eG*e[5mC]*eA*dG*dG*dG*dT*dT*d[5mC]*dA*dG*dG*dT*eA*eA*eA*eG*eT; antisense) [compound 547400]
% inhibition [5]: 0%
